Laboratory results taken from patent US20260374750A1, “LIGANDS SPECIFICALLY TARGETING VESICULAR GLUTAMATE TRANSPORTERS FOR SUPER-RESOLUTION IMAGING” (SORBONNE UNIVERSITÉ, priority 2021, published 2026).

Test system: isolated rat cortex synaptic vesicles
Assay: Confocal and STED observation of isolated synaptic vesicles incubated with fluorescent ligand
Conditions: control wells
Protocol: In view of the preliminary results which are obtained, isolated synaptic vesicles are a model of choice in determining the distribution of the transporters VAChT and VGLUT3 at the vesicular level. The major pitfall in the use of this model is the absence of a protocol of use and results regarding their compatibility with super-resolution microscopy. First, the observability of fluorescent labeling in the vesicles was tested, as well as the effect of STED super-resolution microscopy on this model.
The different manipulations were carried out on rat or mouse synaptic vesicles, coming from the striatum or the cortex.
Material and methods: In a manner similar to vesicular reuptake tests, the fluorescent compounds to be studied are diluted in sucrose buffer (TPS 0.32 M) so as to obtain 10 μM of compound in the final observation medium. […]
Isolated rat cortex synaptic vesicles are then incubated in the presence of ATP and the fluorescent ligand G02 at 37 °C then are observed by confocal microscopy as well as super-resolution microscopy (STED). In order to ensure that the observed labeling corresponds to the fluorescent ligands accumulated on the surface or inside the vesicles, control wells were analyzed. No fluorescent signal is detected in wells containing only isolated vesicles (without fluorescent ligand), or only the fluorescent compound (without vesicles).

Nc1ccc(-c2ccc(C#Cc3cc4cc(C(=O)O)c(=O)oc4cc3O)cc2)cc1 [LSP17-1173, 6-((4′-amino-[1,1′-biphenyl]-4-yl)ethynyl)-7-hydroxy-2-oxo-2H-chromene-3-carboxylic Acid]
precipitation in observation medium: does not precipitate in the observation medium
